Data: patent US11304956B2, “Use of 7-bromo-5-(O-chlorophenyl)-3-propoxy-1,2-dihydro-3H-1,4-benzodiazepin-2-one for inhibition of neuropathic pain and seizures of different etiology” (priority 2016, dated 2022)

Key:
MES-induced seizures = assay: Maximal electroshock (MES) seizures; assay type: in vivo, non-linear male mice; conditions: Mus musculus; mice; corneal electrodes 50 Hz, 50 mA, 0.2 s; interval in brackets; read-out: Anticonvulsive activity (ED50), MES
Description: In many cases, the presence of anticonvulsant (antiepileptic) effect of the compounds correlates with analgesic properties on corresponding models of neuralgia. As a general step is a primary screening of new anticonvulsant compounds on rodents with the help of pentylenetetrazole test and MES (maximal electroshock seizures) as they have a qualitative difference in development and manifestations of seizures. It is believed that the compound ability to prevent the MES-induced seizures is connected with impulse spread inhibition throughout the central nervous system. It is believed that the ability to prevent the MES-induced seizures development indicates the potential efficacy of the compound in the preventing propagation of a pulse along the neural tissue (see Tompson E. Medicines. Bioscreening/Under the editorship of A. V. Stefanova.-K.: Avitsenna, 1998.—250 p.).
For MES-induced seizures experimental animals were exposed to electric stimulation through the corneal electrodes (50 Hz, 50 mA for mice during 0.2 s). The number of animals with the maximum tonic extension of the hind limbs, which occurs in almost 100% of the animals in the control group, was calculated. For the statistically significant determination of ED50, 3 doses of the test compound were used; the effect of each dose was studied in 6-8 animals.

gastric mucosa [1] = assay: Ulcerogenic effect, acute experiment (single intragastric dose); assay type: in vivo, rats; conditions: 3 hours; for Average score: 4-score scale; for Multiplicity of damage: number of ulcers per animal
Experimental: (§1) The disadvantage of most analgesics is the fact that they have ulcerogenic effect that interferes with their long-term use. We have studied this side effect of Compound 1 in acute and subchronic experiments. In the first scheme, the compound in the form of an aqueous suspension (Tween-80) was administered in single dose intragastrically to rats, which had previously been deprived of food for 16 hours with free access to water. After 3 hours, the animals were euthanized with a cervical dislocation, then, after dissection of the abdominal cavity, stomachs were ejected and washed in isotonic sodium chloride solution to take out the contents. Damage of stomach was determined visually. In the second scheme, the compound was administered intragastrically for 4 days, after that the extent of the damaging effect on the stomach was determined, as in the previous experiment.
(§2) Evaluation of ulcerogenic action was carried out on a 4-score scale:
(§3) 0 score—no damage; 0.5 score—hyperemia (blood vessels overflow)
(§4) 1 score—single minor lesions (1-3 point hemorrhages or small ulcers)
(§5) 2 score—multiple (more than 3) lesions (erosions, pinpoint hemorrhages) or 1 large ulcer
(§6) 3 score—significant and massive damages (erosions, hemorrhages) of the gastric mucosa with significant size (diameter up to 4 mm)
(§7) 4 score—gross injuries (massive hemorrhages, erosions, perforations) that cover the entire surface of the gastric mucosa.
(§8) The average multiplicity index of damage to the gastric mucosa (the number of ulcers per animal) and the severity of the damage (in scores) were determined.
(§9) Compound 1 was administered over a wide dose range—in acute studies—50, 250, 500 and 1000 mg/kg. For the subchronic experiment, the compound was used at a dose of 50 mg/kg.

[2] = ED50 by analgesic effect (preliminary studies / literature data); assay type: in vivo; conditions: according to preliminary studies
Experimental: After oral administration of Compound 1 and ketorolac at a dose of 3 mg/kg (which is ED50 according to the literature data for ketorolac), the degree of analgesic effect of the compound exceeded the effect of reference drug both by strength and duration.
To determine the safety of this compound in a chronic trial during long-term administration, it was administered to rats for 28 days at a dose close to ED50 by analgesic effect (0.5 mg/kg).

formalin test in mice = assay: Formalin test (licking time of the injected paw); assay type: in vivo, white male non-linear mice; conditions: for I phase, % effect (decrease in the time of licking of the paw): phase 0-5 min; for II phase, effect (decrease in the time of licking of the paw): phase 15-40 min
gastric mucosa [3] = assay: Ulcerogenic effect, subchronic experiment (4 days intragastric); assay type: in vivo, rats; conditions: 50 mg/kg intragastrically for 4 days
Experimental: as §1, §2, §3, §4, §5, §6, §7, §8, §9
We also determined the indexes of gastrotoxicity of gastric mucosa under conditions of repeated intragastral administration (for 4 days at a dose of 50 mg/kg). […] The average severity in this group was of 1.4±0.27 score, and the multiplicity was of 1.9±0.64 ulcers per animal. This also indicates the absence of a gastrotoxic effect of this compound on the stomach.

[4] = tested on: thermal tail flick test in rats; assay: Model of thermal stimulation (tail-flick); assay type: in vivo; conditions: n=10
Description: The problem was solved by experimental study of the antinociceptive action of the test compound 1 on the model of NP in rats and on the model of pain with the participation of central mechanisms, in particular, thermal tail flick test in rats. Based on the available data on the positive response of constant pain to anticonvulsants in the acute and paroxysmal phase and considering structure 1, we performed an evaluation of the anticonvulsant action of the compound on models of pentamethylenetetrazol-induced convulsions and seizures caused by maximal electroshock (MES). We have taken into account the possible side reaction (ulcerogenic effect) of the compound in experimental animals, expressed in the formation of defects in the mucous membrane of the gastrointestinal tract or in provocation of already existing peptic ulcer relapses. The probability of ulcers formation of medicinal origin is especially high during administration of non-steroidal anti-inflammatory drugs in high doses and in combination with their long-term use in the form of tablets.
A more pronounced effect was after parenteral administration (see Table 2). Control: solvent (twin, distilled water, pH-corrector). Results of the study of Compound 1 and ketorolac analgesic effects on the model of thermal stimulation (tail-flick) as degree of pain sensitivity threshold increase in relation to the initial level (%), n=10, are given in Table 2.

[5] = 50 mg/kg single intragastric dose
[6] = 250 mg/kg single intragastric dose
[7] = 500 mg/kg single intragastric dose
[8] = 1000 mg/kg single intragastric dose
[9] = 0.01 mg/kg intraperitoneally 40 min before formalin
[10] = 0.10 mg/kg intraperitoneally 40 min before formalin
[11] = 3.00 mg/kg intraperitoneally 40 min before formalin

## CCCOC1N=C(c2ccccc2Cl)c2cc(Br)ccc2NC1=O (stereo not shown) [Compound 1, 7-bromo-5-(o-chlorophenyl)-3-propoxy-1,2-dihydro-3H-1,4-benzodiazepin-2-one]
MES-induced seizures
  ED50: 8.2 mg/kg
Gastric mucosa [1]; [5]
  Number of animals with lesions of the gastric mucosa, score 1: 3
  Number of animals with lesions of the gastric mucosa, score 2: 0
  Number of animals with lesions of the gastric mucosa, score 3: 0
  Number of animals with lesions of the gastric mucosa, score 4: 0
  Average score: 0.2 ± 0.13
  Multiplicity of damage: 0.5 ± 0.34
Gastric mucosa [1]; [6]
  Number of animals with lesions of the gastric mucosa, score 1: 5
  Number of animals with lesions of the gastric mucosa, score 2: 2
  Number of animals with lesions of the gastric mucosa, score 3: 0
  Number of animals with lesions of the gastric mucosa, score 4: 0
  Average score: 0.8 ± 0.25
  Multiplicity of damage: 0.9 ± 0.31
Gastric mucosa [1]; [7]
  Number of animals with lesions of the gastric mucosa, score 1: 7
  Number of animals with lesions of the gastric mucosa, score 2: 3
  Number of animals with lesions of the gastric mucosa, score 3: 0
  Number of animals with lesions of the gastric mucosa, score 4: 0
  Average score: 1.0 ± 0.21
  Multiplicity of damage: 1.2 ± 0.25
Gastric mucosa [1]; [8]
  Number of animals with lesions of the gastric mucosa, score 1: 8
  Number of animals with lesions of the gastric mucosa, score 2: 3
  Number of animals with lesions of the gastric mucosa, score 3: 0
  Number of animals with lesions of the gastric mucosa, score 4: 0
  Average score: 1.3±0.21
  Multiplicity of damage: 2.0 ± 0.37
[2]
  ED50: 0.5 mg/kg
Formalin test in mice; [9]
  I phase, % effect (decrease in the time of licking of the paw): 15.00 ± 4.11%
  II phase, effect (decrease in the time of licking of the paw): 32.10 ± 10.10
Formalin test in mice; [10]
  I phase, % effect (decrease in the time of licking of the paw): 76.00 ± 6.50 %
  II phase, effect (decrease in the time of licking of the paw): 54.00 ± 8.60
Formalin test in mice; [11]
  I phase, % effect (decrease in the time of licking of the paw): 91.10 ± 18.80 %
  II phase, effect (decrease in the time of licking of the paw): 98.4 ± 15.0
Formalin test in mice; Compound 1 at 0.1 mg/kg vs diclofenac sodium at 10 mg/kg, first phase
  Activity in the first phase relative to diclofenac sodium: 1.5 times
Gastric mucosa [3]
  Macroscopic examination of the gastric mucosa: insignificant decrease in the folding of the gastric mucosa and a rather distinct decrease in the amount of mucus
Gastric mucosa [3]; n=10
  Multiplicity: 1.9±0.64 ulcers per animal
  Number of animals with lesions of the gastric mucosa, score 1: 6
  Number of animals with lesions of the gastric mucosa, score 2: 5
  Number of animals with lesions of the gastric mucosa, score 3: 0
  Number of animals with lesions of the gastric mucosa, score 4: 0
Gastric mucosa [3]; n=10, 4-score scale
  Average severity: 1.4±0.27 score
[4]; 0.5 mg/kg intraperitoneally, 1 hour
  Degree of pain sensitivity threshold increase in relation to the initial level: +27.4%
[4]; 0.5 mg/kg intraperitoneally, 2 hours
  Degree of pain sensitivity threshold increase in relation to the initial level: +38.4%
[4]; 0.5 mg/kg intraperitoneally, 4 hours
  Degree of pain sensitivity threshold increase in relation to the initial level: +42.3%
[4]; 0.5 mg/kg intraperitoneally, 6 hours
  Degree of pain sensitivity threshold increase in relation to the initial level: +34.9%
[4]; 0.5 mg/kg orally, 1 hour
  Degree of pain sensitivity threshold increase in relation to the initial level: +13.2%
[4]; 0.5 mg/kg orally, 2 hours
  Degree of pain sensitivity threshold increase in relation to the initial level: +22.4%
[4]; 0.5 mg/kg orally, 4 hours
  Degree of pain sensitivity threshold increase in relation to the initial level: +21.7%
[4]; 0.5 mg/kg orally, 6 hours
  Degree of pain sensitivity threshold increase in relation to the initial level: +8.77%
[4]; 3 mg/kg orally, 1 hour
  Degree of pain sensitivity threshold increase in relation to the initial level: +60.7%
[4]; 3 mg/kg orally, 2 hours
  Degree of pain sensitivity threshold increase in relation to the initial level: +83.3%
[4]; 3 mg/kg orally, 4 hours
  Degree of pain sensitivity threshold increase in relation to the initial level: +65.2%
[4]; 3 mg/kg orally, 6 hours
  Degree of pain sensitivity threshold increase in relation to the initial level: +39.4%
